Measurements as given in ChEMBL document CHEMBL2331328, “Synthetic approaches to DNMT inhibitor SGI-1027 and effects on the U937 leukemia cell line” (Bioorg Med Chem Lett, 2013).
The source made the active and inactive calls. The rule behind the calls is not given here.

Assays:
[1] = target: DNA (cytosine-5)-methyltransferase 1 (Homo sapiens) (UniProt P26358); assay: Inhibition of human DNMT1 using AdoMet and poly dI-dC at 50 uM after 2 hrs by radioactive assay
[2] = system: U-937; assay: Cell cycle arrest in human U937 cells at 5 to 50 uM after 30 hrs by FACS analysis; format: functional, cell-based
[3] = system: U-937; assay: Induction of apoptosis in human U937 cells assessed as accumulation at pre-G1 phase after 30 hrs by FACS analysis; format: functional, cell-based

DNA (cytosine-5)-methyltransferase 1 (Homo sapiens), sequence (P26358 whole entry): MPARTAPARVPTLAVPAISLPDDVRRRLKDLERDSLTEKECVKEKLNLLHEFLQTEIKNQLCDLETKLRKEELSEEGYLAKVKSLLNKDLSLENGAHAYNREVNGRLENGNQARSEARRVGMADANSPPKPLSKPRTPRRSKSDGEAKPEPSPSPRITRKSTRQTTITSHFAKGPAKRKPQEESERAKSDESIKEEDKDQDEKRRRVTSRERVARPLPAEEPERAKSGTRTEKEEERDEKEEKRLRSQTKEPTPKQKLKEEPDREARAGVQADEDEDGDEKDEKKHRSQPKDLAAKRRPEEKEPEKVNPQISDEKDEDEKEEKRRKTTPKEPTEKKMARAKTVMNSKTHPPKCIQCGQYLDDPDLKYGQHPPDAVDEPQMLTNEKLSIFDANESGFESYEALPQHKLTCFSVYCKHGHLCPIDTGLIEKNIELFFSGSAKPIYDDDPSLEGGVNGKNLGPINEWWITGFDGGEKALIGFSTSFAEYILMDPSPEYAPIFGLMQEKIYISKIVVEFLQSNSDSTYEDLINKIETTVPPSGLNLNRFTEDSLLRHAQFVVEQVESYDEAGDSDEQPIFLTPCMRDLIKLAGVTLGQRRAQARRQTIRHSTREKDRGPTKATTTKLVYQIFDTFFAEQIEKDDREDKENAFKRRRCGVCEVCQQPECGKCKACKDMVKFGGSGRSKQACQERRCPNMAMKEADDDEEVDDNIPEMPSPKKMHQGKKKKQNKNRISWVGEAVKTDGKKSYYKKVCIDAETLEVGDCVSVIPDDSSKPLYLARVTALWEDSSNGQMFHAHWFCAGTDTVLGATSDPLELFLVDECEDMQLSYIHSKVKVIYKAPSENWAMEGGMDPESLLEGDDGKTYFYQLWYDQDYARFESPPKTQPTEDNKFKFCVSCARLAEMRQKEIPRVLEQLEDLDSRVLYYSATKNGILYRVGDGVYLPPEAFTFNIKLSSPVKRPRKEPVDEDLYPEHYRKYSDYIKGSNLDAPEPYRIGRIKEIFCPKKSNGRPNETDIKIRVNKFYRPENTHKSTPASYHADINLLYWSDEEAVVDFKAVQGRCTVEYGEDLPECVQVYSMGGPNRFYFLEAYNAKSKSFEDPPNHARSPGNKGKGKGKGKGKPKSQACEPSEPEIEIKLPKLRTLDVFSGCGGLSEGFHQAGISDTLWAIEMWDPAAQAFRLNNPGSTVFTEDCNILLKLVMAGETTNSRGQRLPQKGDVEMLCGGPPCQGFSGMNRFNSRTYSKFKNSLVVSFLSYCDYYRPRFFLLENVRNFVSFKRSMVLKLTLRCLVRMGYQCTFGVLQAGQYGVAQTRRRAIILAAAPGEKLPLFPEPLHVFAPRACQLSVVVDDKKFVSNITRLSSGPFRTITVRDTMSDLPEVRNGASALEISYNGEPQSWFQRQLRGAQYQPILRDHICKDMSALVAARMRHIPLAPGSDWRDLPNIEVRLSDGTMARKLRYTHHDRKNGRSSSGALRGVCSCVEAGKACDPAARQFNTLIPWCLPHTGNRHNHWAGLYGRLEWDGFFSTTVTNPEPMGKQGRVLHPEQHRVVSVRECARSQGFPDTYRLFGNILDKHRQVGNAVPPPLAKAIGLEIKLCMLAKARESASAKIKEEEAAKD

Structure (SMILES) | inhibition [1] | Activity [2] | Activity [3]
O=C(O)[C@H](Cc1c[nH]c2ccccc12)N1C(=O)c2ccccc2C1=O | Active |  | 
Cc1cc(Nc2ccc(NC(=O)c3ccc(Nc4ccnc5ccccc45)cc3)cc2)nc(N)n1 | Active | inactive | Dose-dependent effect
